Consider seven molecules from US7462716B2, “Statin derivatives” (Nicox S.A., priority 2003, dated 2008).

Like-named read-outs stand apart in the source and are kept apart here. Marks after values point to notes of the source that are not given here.

In assay [1] the test system is murine hindlimb ischemia. Put plainly: Murine hindlimb ischemia model (capillary density, clinical outcome). The class given is in vivo, CD1 male mice. The method, then:
Angiogenesis is a primary response to local tissue hypoxia and is likely involved in the restoration of blood flow in ischemic diseases such as acute coronary syndromes and occlusive peripheral vascular disease. […] After 3 days, mice were anaesthetized and left hindlimb ischemia was induced by electro-coagulation of the upper part of femoral artery. Treatment was continued for the following 2 weeks after surgery. Systolic blood pressure was measured by tail cuff technique at 7 and 14 days. The clinical outcome at 14 days was determined by counting the number of necrotic or lost nails in the ischemic foot as well as the number of auto-amputation events. At 14 days from ischemia induction, hindlimbs of anaesthetized mice were perfusion-fixed, both adductors were coded and histologically processed. Capillary and arteriolar densities (ncap/mm^2 and nart/mm^2) were determined.

The test system of assay [2] is isolated rabbit thoracic aorta preparations. The assay can be described thus: Vascular tone: relaxation of noradrenaline-precontracted isolated aortic rings. As to conditions: Oryctolagus cuniculus; rabbit thoracic aorta rings contracted with noradrenaline 1 μM, functional endothelium; ± sem; read-out: IC50 (concentration giving 50% reversal of NA contraction). The method, then: The ability of statin nitroderivatives to induce vasorelaxation in comparison to native statins, was tested in vitro in isolated rabbit thoracic aorta preparations (Wanstall J. C. et al., Br. J. Pharmacol., 134:463-472, 2001). Male New Zealand rabbits were anaesthetized with thiopental-Na (50 mg/kg, iv), sacrificed by exsanguinations and then the thorax was opened and the aorta dissected. Single ring preparations (4 mm in length) of thoracic aorta were set up in physiological salt solution (PSS) at 37° C. in small organ chambers (5 ml). The composition of PSS was (mM): NaCl 130, NaHCO3 14.9, KH2PO4 1.2, MgSO4 1.2, HEPES 10, CaCl2, ascorbic acid […] and glucose 1.1 (95% O2/5% CO2; pH 7.4). Each ring was mounted under 2 g passive tension in 5 ml organ bath. Isometric tension was recorded with a Grass transducer (Grass FT03) attached to a BIOPAC MP150 System. Preparations were allowed to equilibrate for 1 h, then contracted submaximally with noradrenaline (NA, 1 μM) and, when the contraction was stable, acetylcholine (ACh, 10 μM) was added. A relaxant response to ACh indicated the presence of a functional endothelium. When a stable precontraction was reached, a cumulative concentration-response curve to either of the vasorelaxant agents was obtained in the presence of a functional endothelium. Time intervals between different concentrations were based on the time needed to reach a full response. Moreover, the effect of the soluble guanylyl cyclase inhibitor ODQ (1-H-(1,2,4)-oxadiazol(4,3-a)quinoxalin-1-one) on the dilator responses elicited by the compounds was examined preincubating the aortic rings with ODQ (10 μM) for 20 min. Responses to vasorelaxing agents were measured from the plateau of NA contraction. The IC50 (concentration giving 50% reversal of NA contraction) was interpolated from the plots of relaxant-response vs log molar concentration of tested compound.
During the experimental period, the plateau obtained with NA was stable without significant spontaneous loss of contraction in the aortic rings.
As shown in the following Table 1, the nitroderivatives of the invention were able to induce relaxation in a concentration-dependent manner. Furthermore, in experiments performed in presence of ODQ (10 μM), the vasorelaxant responses to all the tested drugs were inhibited.
IC50 is the concentration which inhibits 50% of the response. Effects of Nitrostatin Derivatives on Inflammatory Pathways In Vitro

For assay [3], the system named is iNOS. The assay can be described thus: Western blot of iNOS protein in LPS-stimulated RAW264.7 cells. The class given is cell-based. The method, then: (§1) The experiments were performed using RAW264.7 monocyte macrophage cell line. […] At the end of the incubation, the cells were harvested in lysis buffer and the protein content was measured. Western Blot of inducible iNOS and COX2 proteins (representatives of an ongoing inflammatory process) was performed. The obtained results reported in Table 2 are expressed as % reduction of optical density of each treatment vs. LPS-treated samples.
On the technique in general: In western blotting, separated proteins are transferred to a membrane and probed.

The test system of assay [4] is COX2. The assay can be described thus: Western blot of COX2 protein in LPS-stimulated RAW264.7 cells. The class given is cell-based. The method, then:
as §1

Assay [5] relates to Tissue factor (TF). Put plainly: Tissue factor expression in LPS-stimulated blood mononuclear cells. The class given is cell-based. As to conditions: 50 μM; human MNC, LPS 1 μg/ml, 3 h; mean ± SEM. The method, then:
Tissue factor (TF) is a major regulator of homeostasis and thrombosis. […] MNC were obtained from fresh blood by density gradient (Ficoll-Hypaque) centrifugation and resuspended in serum-free RPMI medium at the concentration of 2−3×10^6/ml. […] After incubation for 3 h at 37° C., TF expression in MNC was assessed by 1) functional assay (Semeraro et al., 1983. Immunology; 50: 529-35) on intact cells; 2) immunological assay (Imubind, Instrumentation Laboratory, Milan) on Triton X-100 cell extracts; 3) RT-PCR (Rossiello et al. Thromb Haemost 2000; 84:453-59).

Assay [6] has as its system leukocyte adhesion. The assay can be described thus: Ex vivo leukocyte adhesion to thrombin-stimulated arterial segments of dosed ApoE knockout mice. The class given is in vivo. Conditions: ApoE K/O mice, pravastatin 40 mg/kg po or equimolar dose daily for 5 days. The method, then: The interaction between leukocytes and the vascular endothelium is a crucial inflammatory step in the atherogenic process.
Leukocytes were isolated from spleen, centrifuged, RBCs lysed with water. Arterial segments prepared—aortic & thoracic regions opened longitudinally and pinned out luminal side up. Radiolabelled leukocytes (^51Cr-leukocytes) are incubated with thrombin-stimulated (10 UmL−1 for 10 min.) segments for 30 min. Segments are washed with medium and adhesion measured by gamma counter.

Assay [7] has as its system human platelets. The assay can be described thus: U46619-induced platelet aggregation in vitro. The class given is cell-based. The method, then: Platelets are prominent components of the thrombi.
Compounds were incubated at 37° C. for 2 min before adding U46619, an aggregating agent, TxA2 analog. Aggregation was followed for 5 min and the maximal amplitude (cm) was measured. DMSO (0.05%) was used as vehicle. Compounds were tested at concentrations ranging from 50 to 200 μM.

The test system of assay [8] is U46619-induced pulmonary thromboembolism. Put plainly: Protection from U46619-induced pulmonary thromboembolism. The class given is in vivo, CD-1 mice. Conditions: mice, U46619 0.2 mg/kg iv. The method, then:
1 (equimolar doses) or vehicle. 1-3 hrs later the animals were injected into a tail vein with U46619 (0.2 mg/kg), a stable TxA2 analog. As previously described (Momi et al., Eur. J. Pharmacol. 397:177-185, 2000), this dose of the agonist caused 80 to 90% mortality within 3 min. in the control group. In each experimental session at least six animals per treatment group were tested; control groups were run at the beginning and at the end of every experimental session. Protection against agonist-induced thromboembolism was expressed as (1-Tdrug/Tsaline)×100, were Tdrug is the mortality rate in drug-treated mice, and Tsaline is the number of non surviving control animals which received […] only.
The results were expressed as percentage of protection from U46619-induced pulmonary thromboembolism as compared to the control group.

Where [9] appears, read: mice, 14 days after ischemia, in chow pravastatin 40 mg/kg or nitroderivative 48 mg/kg.
Where [10] appears, read: 100 μM, RAW264.7, LPS 1 μg/ml 8 h.
Where [11] appears, read: 10 μM, RAW264.7, LPS 1 μg/ml 16 h, negative = increase vs LPS.

For `CC[C@H](C)C(=O)O[C@H]1C[C@H](O)C=C2C=C[C@H](C)[C@H](CCC(O)C[C@H](O)CC(=O)OCCCCO[N+](=O)[O-])[C@H]21` (relative stereo) [Compound of EX. 1, [1S-[1α(βS*,δS*),2α,6α,8β-(R*),8aα]]-1,2,6,7,8,8a-hexahydro-β,δ,6-trihydroxy-2-methyl-8-(2-methyl-1-oxobutoxy)-1-naphthaleneheptanoic acid 4-(nitrooxy)butyl ester], the “clinical outcome in mice with hindlimb ischemia” value in assay [1] (14 days, necrotic or lost nails, auto-amputation events) was “ameliorates clinical outcome”. In addition, in assay [1] (setting [9]), the “N capillaries/mm^2 in contralateral adductor muscle” value came out at 660 ± 40 N capillaries/mm^2 and the “N capillaries/mm^2 in ischemic adductor muscle” value is 1116 ± 53^§§**^++ N capillaries/mm^2. In addition, in assay [2], the IC50 is 2.4 ± 0.6 µM. For the same molecule, the “iNOS (% reduction vs LPS)” value in assay [3] (setting [10]) turned out to be 55.2 ± 11.8%. Further, the “COX2 (% reduction vs LPS)” value in assay [4] (setting [10]) was found to be 74.9 ± 4.4%. Further, in assay [5], the “TF in LPS-stimulated MNC: Activity” value was 16 ± 4.9 AU/10^6 cells and the “TF in LPS-stimulated MNC: Antigen” value is 0.65 ± 0.11 ng/mg protein. Besides, the “Leukocyte adhesion (%) (thoracic aorta)” value in assay [6] was 9.3 ± 3 %. For the same molecule, in assay [7] (Platelet, human gel filtered platelets, read-out: Platelet aggregation (GFP) IC50), the IC50 was 101 ± 10 µM. The IC50 in assay [7] (human platelet rich plasma, read-out: Platelet aggregation (PRP) IC50) came out at 74 ± 7 µM. In addition, in assay [8] (12 mg/kg ip), the “Antithrombotic activity (%) 1-h before challenge” value is listed as 30* % and the “Antithrombotic activity (%) 3-h before challenge” value is listed as 40* %. In assay [8] (24 mg/kg ip), the “Antithrombotic activity (%) 1-h before challenge” value is 40*+ % and the “Antithrombotic activity (%) 3-h before challenge” value is on record as 55*+ %.
With `CC(C)n1c(/C=C/[C@@H](O)C[C@@H](O)CC(=O)OCCCCO[N+](=O)[O-])c(-c2ccc(F)cc2)c2ccccc21` (relative stereo) [Compound of EX. 3, [R*,S*-(E)]-7-[3-(4-fluorophenyl)-1-(1-methylethyl)-1H-indol-2-yl]-3,5-dihydroxy-6-heptanoic acid 4-(nitrooxy)butyl ester], the IC50 in assay [2] was found to be 13.4 ± 3.5 µM. Also, in assay [3] (setting [11]), the “iNOS (% reduction vs LPS)” value stood at 44.8 ± 11.9%. Also, the “COX2 (% reduction vs LPS)” value in assay [4] (setting [11]) is reported as 53.9 ± 6.1%.
`CC(C)n1c(/C=C/[C@@H](O)C[C@@H](O)CC(=O)OCc2ccc(CO[N+](=O)[O-])cc2)c(-c2ccc(F)cc2)c2ccccc21` (relative stereo) [Compound of EX. 4, [R*,S*-(E)]-7-[3-(4-fluorophenyl)-1-(1-methylethyl)-1H-indol-2-yl]-3,5-dihydroxy-6-heptanoic acid 4-(nitrooxymethyl)benzyl ester]: in assay [2], the IC50 is 8.7 ± 3.3 µM. Besides, in assay [3] (setting [11]), the “iNOS (% reduction vs LPS)” value amounted to 22.4 ± 9.6%. Besides, in assay [4] (setting [11]), the “COX2 (% reduction vs LPS)” value is reported as 19.4 ± 6.5%.
As to `CC(C)c1c(C(=O)Nc2ccccc2)c(-c2ccccc2)c(-c2ccc(F)cc2)n1CC[C@@H](O)C[C@@H](O)CC(=O)O` [Atorvastatin, atorvastatin, reference compound], the “iNOS (% reduction vs LPS)” value in assay [3] (setting [11]) is listed as 20 ± 14%.
Same read-out and setting: with `CC(C)c1c(C(=O)Nc2ccccc2)c(-c2ccccc2)c(-c2ccc(F)cc2)n1CC[C@@H](O)C[C@@H](O)CC(=O)OCCCCO[N+](=O)[O-]` [Compound of EX. 7, (βR,δR)-2(4-fluorophenyl)-β,δ-dihydroxy-5-(1-methylethyl)-3-phenyl-4-[(phenylamino)carbon-yl]-1H-pyrrole-1-heptanoic acid 4-(nitrooxy)butyl ester] the figure was 45 ± 9%.
With `CC(C)n1c(/C=C/C(O)CC(O)CC(=O)O)c(-c2ccc(F)cc2)c2ccccc21` (stereo not shown) [Fluvastatin, fluvastatin, reference compound], in assay [2], the IC50 is more than 30 µM. Moreover, the “iNOS (% reduction vs LPS)” value in assay [3] (setting [11]) is reported as −14.8 ± 5.9%. The “COX2 (% reduction vs LPS)” value in assay [4] (setting [11]) was −2.8 ± 3.7%.
Regarding `CC[C@H](C)C(=O)O[C@H]1C[C@H](O)C=C2C=C[C@H](C)[C@H](CC[C@@H](O)C[C@@H](O)CC(=O)O)[C@H]21` [Pravastatin, pravastatin, reference compound], in assay [1] (setting [9]), the “N capillaries/mm^2 in contralateral adductor muscle” value was determined as 736 ± 40 N capillaries/mm^2. Moreover, the IC50 in assay [2] is more than 30 µM. In addition, the “iNOS (% reduction vs LPS)” value in assay [3] (setting [10]) stood at 4.7 ± 3.6%. In assay [4] (setting [10]), the “COX2 (% reduction vs LPS)” value is 26.9 ± 7.9%. In addition, in assay [5], the “TF in LPS-stimulated MNC: Activity” value is recorded as 189 ± 37.6 AU/10^6 cells and the “TF in LPS-stimulated MNC: Antigen” value was determined as 4.4 ± 1.3 ng/mg protein. In addition, the “Leukocyte adhesion (%) (thoracic aorta)” value in assay [6] amounted to 23.0 ± 6%. For the same molecule, in assay [8] (10 mg/kg ip), the “Antithrombotic activity (%) 1-h before challenge” value was found to be 15% and the “Antithrombotic activity (%) 3-h before challenge” value turned out to be 10%. For the same molecule, in assay [8] (20 mg/kg ip), the “Antithrombotic activity (%) 1-h before challenge” value turned out to be 25% and the “Antithrombotic activity (%) 3-h before challenge” value is on record as 20%.
